Test results reported in the NIST ThermoML archive (doi:10.1016/j.jct.2017.10.017).
± gives the expanded uncertainty stated by the source.

Conditions: for Glass transition temperature: DSC; for Normal melting temperature: Crystal, DTA

SMILES | Glass transition temperature [°C] | Normal melting temperature [°C]
CCCCCCCCCC[N+](C)(CCO)CCO.[Br-] [N,N-bis(2-hydroxyethyl)-N-methyldecan-1-aminium bromide] |  | 47 ± 6
CCCCCC[N+](C)(CCO)CCO.[Br-] [N,N-bis(2-hydroxyethyl)-N-methylhexan-1-aminium bromide] | -47 ± 6 | 
CCCC[N+](C)(CCO)CCO.[Br-] [N,N-bis(2-hydroxyethyl)-N-methylbutan-1-aminium bromide] | -49 ± 6 | 

The next lines start with the values.

Glass transition temperature [°C] | Normal melting temperature [°C] | SMILES
-50 ± 6 |  | CCCC[N+](CCO)(CCO)CCCC.[Br-] [N-butyl-N,N-bis(2-hydroxyethyl)butan-1-aminium bromide]
 | 27 ± 6 | CCCCCCCC[N+](C)(CCO)CCO.[Br-] [N,N-bis(2-hydroxyethyl)-N-methyloctan-1-aminium bromide]
